# “And” between values parts separate entries of the source, which are not always exact repeats. Equal entries are not always repeated. Inconclusive results and toxic doses are left out.
# System: P388 leukemia ip, CD2F1 mice, survival T/C
# Test: NCI In Vivo Anticancer Drug Screen. Data for tumor model P388 Leukemia (intraperitoneal) in CD2F1 (CDF1) mice
# Conditions: endpoint: median survival time, higher = longer survival
# How it was run: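 Mice carrying the transplanted tumor received test compound or vehicle. Survival was recorded in each group, and the value is the treated-group measurement divided by that of the vehicle-treated control group.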
# [1] = dose: 12.5 mg/kg/injection, schedule: Q01DX001 (ip), vehicle: saline
# [2] = dose: 25.0 mg/kg/injection, schedule: Q01DX001 (ip), vehicle: saline
# [3] = dose: 100.0 mg/kg/injection, schedule: Q01DX009 (ip), vehicle: saline with Tween-80
# [4] = dose: 200.0 mg/kg/injection, schedule: Q01DX009 (ip), vehicle: saline with Tween-80
# [5] = dose: 25.0 mg/kg/injection, schedule: Q01DX005 (ip), vehicle: saline with Tween-80
# [6] = dose: 50.0 mg/kg/injection, schedule: Q01DX005 (ip), vehicle: saline with Tween-80
# [7] = dose: 100.0 mg/kg/injection, schedule: Q01DX005 (ip), vehicle: saline with Tween-80
# [8] = dose: 200.0 mg/kg/injection, schedule: Q01DX005 (ip), vehicle: saline with Tween-80
# [9] = dose: 50.0 mg/kg/injection, schedule: Q01DX005 (ip), vehicle: Klucel (hydroxypropylcellulose) (HPC)
# [10] = dose: 100.0 mg/kg/injection, schedule: Q01DX005 (ip), vehicle: Klucel (hydroxypropylcellulose) (HPC)
# [11] = dose: 200.0 mg/kg/injection, schedule: Q01DX005 (ip), vehicle: Klucel (hydroxypropylcellulose) (HPC)
# [12] = dose: 50.0 mg/kg/injection, schedule: Q01DX009 (ip), vehicle: saline with Tween-80
# [13] = dose: 50.0 mg/kg/injection, schedule: Q01DX009 (ip), vehicle: saline
# [14] = dose: 100.0 mg/kg/injection, schedule: Q01DX009 (ip), vehicle: saline
# [15] = dose: 200.0 mg/kg/injection, schedule: Q01DX009 (ip), vehicle: saline
# [16] = dose: 400.0 mg/kg/injection, schedule: Q04DX003 (ip), vehicle: saline with Tween-80
# [17] = dose: 50.0 mg/kg/injection, schedule: Q01DX009 (ip), vehicle: Klucel (hydroxypropylcellulose) (HPC)
# [18] = dose: 100.0 mg/kg/injection, schedule: Q01DX009 (ip), vehicle: Klucel (hydroxypropylcellulose) (HPC)
# [19] = dose: 200.0 mg/kg/injection, schedule: Q01DX009 (ip), vehicle: Klucel (hydroxypropylcellulose) (HPC)
compound,measurement,setting,value
CCOC(=O)/[C](=N\N=P(N(C)C)(N(C)C)N(C)C)[Sb]([CH3])[CH3],T/C,[1],99 % of control
same,T/C,[2],102 % of control
CCCCCCCCCSc1ccc(C(=O)O)cc1,T/C,[3],109 % of control
same,T/C,[4],103 % of control
same,T/C,"dose: 400.0 mg/kg/injection, schedule: Q01DX009 (ip), vehicle: saline with Tween-80",105 % of control
O=C(O)/C=N/NS(=O)(=O)c1ccc2ccccc2c1,T/C,"dose: 50.0 mg/kg/injection, schedule: Q01DX009 (ip), vehicle: other",161 % of control and 164 % of control
same,T/C,"dose: 200.0 mg/kg/injection, schedule: Q01DX009 (ip), vehicle: other",153 % of control
CCCCN(CCCC)CCC(C)(O)c1cccc2ccccc12 (centres undefined),T/C,[5],98 % of control
same,T/C,[6],108 % of control
same,T/C,[7],92 % of control
COS(=O)(=O)OC1(SC)C=C(c2ccccc2)SS1 (centres undefined),T/C,[1],96 % of control
same,T/C,[2],109 % of control and 121 % of control
same,T/C,"dose: 50.0 mg/kg/injection, schedule: Q01DX001 (ip), vehicle: saline",118 % of control and 122 % of control
O=C(Nc1cccc2c1C(=O)c1c(NC(=O)c3ccccc3)ccc(Nc3cccc4c3C(=O)c3ccccc3C4=O)c1C2=O)c1ccccc1,T/C,[6],100 % of control
same,T/C,[7],103 % of control
same,T/C,[8],103 % of control
N#Cc1ccc(NN=NCCCl)cc1,T/C,"dose: 12.5 mg/kg/injection, schedule: Q01DX009 (ip), vehicle: distilled water + Tween-80",114 % of control
same,T/C,"dose: 12.5 mg/kg/injection, schedule: Q01DX009 (ip), vehicle: distilled water + alcohol",95 % of control
same,T/C,"dose: 25.0 mg/kg/injection, schedule: Q01DX009 (ip), vehicle: distilled water + alcohol",91 % of control
same,T/C,"dose: 50.0 mg/kg/injection, schedule: Q01DX009 (ip), vehicle: distilled water + alcohol",97 % of control
same,T/C,"dose: 100.0 mg/kg/injection, schedule: Q01DX009 (ip), vehicle: distilled water + Tween-80",87 % of control
same,T/C,"dose: 100.0 mg/kg/injection, schedule: Q01DX009 (ip), vehicle: distilled water + alcohol",88 % of control
O=CC(O)C(O)C1[O][Sb][O]C1CO (centres undefined),T/C,"dose: 50.0 mg/kg/injection, schedule: Q01DX005 (ip), vehicle: saline",99 % of control
same,T/C,"dose: 100.0 mg/kg/injection, schedule: Q01DX005 (ip), vehicle: saline",100 % of control
same,T/C,"dose: 200.0 mg/kg/injection, schedule: Q01DX005 (ip), vehicle: saline",103 % of control
C=CC1CCCC[N+]1(C)Cc1ccccc1 (centres undefined),T/C,"dose: 6.25 mg/kg/injection, schedule: Q01DX005 (ip), vehicle: saline",94 % of control
same,T/C,"dose: 12.5 mg/kg/injection, schedule: Q01DX005 (ip), vehicle: saline",98 % of control
C=C1C(=O)OC2CC(C)C3(O)CCC(=O)C3(C)CC12 (centres undefined),T/C,"dose: 25.0 mg/kg/injection, schedule: Q01DX005 (ip), vehicle: Klucel (hydroxypropylcellulose) (HPC)",98 % of control
same,T/C,[9],90 % of control
same,T/C,[10],100 % of control
same,T/C,[11],102 % of control
COc1ccc(-c2c3ccc(OC)cc3n3ccccc23)cc1,T/C,"dose: 100.0 mg/kg/injection, schedule: Q01DX002 (ip), vehicle: saline with Tween-80",99 % of control
same,T/C,"dose: 200.0 mg/kg/injection, schedule: Q01DX002 (ip), vehicle: saline with Tween-80",97 % of control
same,T/C,"dose: 400.0 mg/kg/injection, schedule: Q01DX002 (ip), vehicle: saline with Tween-80",107 % of control
O=C(Nc1ccc(Cl)cc1)Nc1nnc2nc(CC(=O)c3cccc([N+](=O)[O-])c3Cl)c(=O)[nH]n12,T/C,"dose: 60.0 mg/kg/injection, schedule: Q01DX005 (ip), vehicle: saline with Tween-80",99 % of control
same,T/C,"dose: 120.0 mg/kg/injection, schedule: Q01DX005 (ip), vehicle: saline with Tween-80",101 % of control
same,T/C,"dose: 240.0 mg/kg/injection, schedule: Q01DX005 (ip), vehicle: saline with Tween-80",100 % of control
CC1=CC=CC(C)(C(Cl)Cl)C1=O (centres undefined),T/C,[12],109 % of control
same,T/C,[3],104 % of control
same,T/C,[4],109 % of control
CCCCNc1c(C(=O)OCC)cnc2c1cnn2CC,T/C,"dose: 100.0 mg/kg/injection, schedule: Q04DX002 (ip), vehicle: saline with Tween-80",102 % of control
same,T/C,"dose: 200.0 mg/kg/injection, schedule: Q04DX002 (ip), vehicle: saline with Tween-80",102 % of control
same,T/C,"dose: 400.0 mg/kg/injection, schedule: Q04DX002 (ip), vehicle: saline with Tween-80",90 % of control
O=C(NC(=S)c1ccc(Br)cc1)Nc1ccc(Cl)c(Cl)c1,T/C,"dose: 12.5 mg/kg/injection, schedule: Q01DX009 (ip), vehicle: saline with Tween-80",96 % of control
same,T/C,"dose: 25.0 mg/kg/injection, schedule: Q01DX009 (ip), vehicle: saline with Tween-80",98 % of control
same,T/C,[12],106 % of control
O=C1C(F)=C(N2CC2)C(=O)C(F)=C1N1CC1,T/C,"dose: 1.56 mg/kg/injection, schedule: Q01DX009 (ip), vehicle: saline",115 % of control
same,T/C,"dose: 3.12 mg/kg/injection, schedule: Q01DX009 (ip), vehicle: saline",114 % of control
same,T/C,"dose: 6.25 mg/kg/injection, schedule: Q01DX009 (ip), vehicle: saline",150 % of control
CC(=O)CC1(O)C(=O)C(C(C)(C)C)=CC2(C(C)(C)C)OC12 (centres undefined),T/C,[13],102 % of control
same,T/C,[14],95 % of control
same,T/C,[15],95 % of control
CSC(=S)/C(=C/Nc1ncccn1)c1ccccc1,T/C,"dose: 30.0 mg/kg/injection, schedule: Q01DX005 (ip), vehicle: Klucel (hydroxypropylcellulose) (HPC)",87 % of control
same,T/C,"dose: 120.0 mg/kg/injection, schedule: Q01DX005 (ip), vehicle: Klucel (hydroxypropylcellulose) (HPC)",89 % of control
Cc1cc2cc3ccc(Cl)nn3c2nn1,T/C,[5],104 % of control
same,T/C,[6],99 % of control
same,T/C,[7],95 % of control
same,T/C,[8],96 % of control
CC(=O)Nn1cnc2[nH]ncc2c1=O,T/C,"dose: 60.0 mg/kg/injection, schedule: Q01DX005 (ip), vehicle: saline",102 % of control
same,T/C,"dose: 120.0 mg/kg/injection, schedule: Q01DX005 (ip), vehicle: saline",101 % of control
same,T/C,"dose: 240.0 mg/kg/injection, schedule: Q01DX005 (ip), vehicle: saline",101 % of control
CCCCn1cnc2c(=S)nc(N)[nH]c21,T/C,"dose: 25.0 mg/kg/injection, schedule: Q04DX003 (ip), vehicle: saline with Tween-80",109 % of control
same,T/C,"dose: 50.0 mg/kg/injection, schedule: Q04DX003 (ip), vehicle: saline with Tween-80",118 % of control
same,T/C,[16],90 % of control
CCC12Nc3ccc([N+](=O)[O-])cc3C(CC)(C1=O)C(c1ccccc1)=C2c1ccccc1 (centres undefined),T/C,[17],113 % of control
same,T/C,[18],110 % of control
same,T/C,[19],112 % of control
N#CC1C(=O)NC(=O)C(C#N)C1c1ccc(Cl)c(Cl)c1 (centres undefined),T/C,[17],99 % of control
same,T/C,[18],100 % of control
same,T/C,[19],102 % of control
COc1cc(N=Nc2ccc([N+](=O)[O-])cc2)c([OH+]C)cc1[N+]#N.COc1cc(N=Nc2ccc([N+](=O)[O-])cc2)c([OH+]C)cc1[N+]#N.[Cl][Zn][Cl],T/C,[13],110 % of control and 112 % of control and 117 % of control
same,T/C,[14],111 % of control and 117 % of control and 119 % of control
same,T/C,[15],116 % of control and 119 % of control
same,T/C,"dose: 400.0 mg/kg/injection, schedule: Q01DX009 (ip), vehicle: saline",107 % of control
COc1ccc(S(=O)(=O)NN=C(C(=O)O)C(=O)O)cc1,T/C,[5],102 % of control
same,T/C,[6],102 % of control
same,T/C,[7],95 % of control
same,T/C,[8],109 % of control
Cc1cc(NC(=O)SCCOC(=O)COc2ccc(Cl)cc2)ccc1Cl,T/C,"dose: 100.0 mg/kg/injection, schedule: Q04DX003 (ip), vehicle: saline with Tween-80",100 % of control
same,T/C,"dose: 200.0 mg/kg/injection, schedule: Q04DX003 (ip), vehicle: saline with Tween-80",95 % of control
same,T/C,[16],90 % of control
CCCCCCCCCCOc1cc2c(=O)c(C(=O)OCC)c[nH]c2cc1OCC,T/C,[9],102 % of control
same,T/C,[10],98 % of control
same,T/C,[11],108 % of control

# From PubChem BioAssay AID330 (DTP/NCI, 2004)
